Test: Organ distribution of injected radioactivity in rats after I.V. injection
Assay type: in vivo, Ratten (weiblich, Wistar, spf)
Conditions: Ratte
Procedure: Es werden je 3 Ratten (weiblich, Wistar, spf) zu sieben verschiedenen Zeitpunkten (2′, 10′, 20′, 40′, 1h, 6h, 15h) gemessen. Das Gewicht der Tiere lag zwischen 113 und 144 g. Die Fütterung erfolgte ad libitum. Die I.V. injizierten Dosen variierten von 184 bis 355 µCi in jeweils 0,2 ml.

Structure (SMILES): CCOC(=O)c1ncn2c1CN(C)C(=O)c1c([123I])cccc1-2 [Aethyl-7-¹²³Jod-5,6-dihydro-5-methyl-6-oxo-4H-imidazo[1,5-a][1,4]benzodiazepin-3-carboxylat]
- Prozent der injizierten Aktivität in den entsprechend Organen (Blase, 2′): 0,03 Prozent der injizierten Aktivität
- Prozent der injizierten Aktivität in den entsprechend Organen (Blase, 10′): 0,06 Prozent der injizierten Aktivität
- Prozent der injizierten Aktivität in den entsprechend Organen (Blase, 20′): 0,03 Prozent der injizierten Aktivität
- Prozent der injizierten Aktivität in den entsprechend Organen (Blase, 40′): 0,01 Prozent der injizierten Aktivität
- Prozent der injizierten Aktivität in den entsprechend Organen (Blase, 60′): 0,03 Prozent der injizierten Aktivität
- Prozent der injizierten Aktivität in den entsprechend Organen (Blase, 6h): 0,09 Prozent der injizierten Aktivität
- Prozent der injizierten Aktivität in den entsprechend Organen (Blase, 15h): 0,0022 Prozent der injizierten Aktivität
- Prozent der injizierten Aktivität in den entsprechend Organen (Darm, 2′): 9,28 Prozent der injizierten Aktivität
- Prozent der injizierten Aktivität in den entsprechend Organen (Darm, 10′): 12,70 Prozent der injizierten Aktivität
- Prozent der injizierten Aktivität in den entsprechend Organen (Darm, 20′): 22,53 Prozent der injizierten Aktivität
- Prozent der injizierten Aktivität in den entsprechend Organen (Darm, 40′): 25,54 Prozent der injizierten Aktivität
- Prozent der injizierten Aktivität in den entsprechend Organen (Darm, 60′): 28,48 Prozent der injizierten Aktivität
- Prozent der injizierten Aktivität in den entsprechend Organen (Darm, 6h): 19,50 Prozent der injizierten Aktivität
- Prozent der injizierten Aktivität in den entsprechend Organen (Darm, 15h): 1,012 Prozent der injizierten Aktivität
- Prozent der injizierten Aktivität in den entsprechend Organen (Femur, 2′): 0,39 Prozent der injizierten Aktivität
- Prozent der injizierten Aktivität in den entsprechend Organen (Femur, 10′): 0,25 Prozent der injizierten Aktivität
- Prozent der injizierten Aktivität in den entsprechend Organen (Femur, 20′): 0,14 Prozent der injizierten Aktivität
- Prozent der injizierten Aktivität in den entsprechend Organen (Femur, 40′): 0,06 Prozent der injizierten Aktivität
- Prozent der injizierten Aktivität in den entsprechend Organen (Femur, 60′): 0,04 Prozent der injizierten Aktivität
- Prozent der injizierten Aktivität in den entsprechend Organen (Femur, 6h): 0,01 Prozent der injizierten Aktivität
- Prozent der injizierten Aktivität in den entsprechend Organen (Femur, 15h): 0,004 Prozent der injizierten Aktivität
- Prozent der injizierten Aktivität in den entsprechend Organen (Herz, 2′): 0,58 Prozent der injizierten Aktivität
- Prozent der injizierten Aktivität in den entsprechend Organen (Herz, 10′): 0,37 Prozent der injizierten Aktivität
- Prozent der injizierten Aktivität in den entsprechend Organen (Herz, 20′): 0,17 Prozent der injizierten Aktivität
- Prozent der injizierten Aktivität in den entsprechend Organen (Herz, 40′): 0,06 Prozent der injizierten Aktivität
- Prozent der injizierten Aktivität in den entsprechend Organen (Herz, 60′): 0,03 Prozent der injizierten Aktivität
- Prozent der injizierten Aktivität in den entsprechend Organen (Herz, 6h): 0,009 Prozent der injizierten Aktivität
- Prozent der injizierten Aktivität in den entsprechend Organen (Herz, 15h): 0,0035 Prozent der injizierten Aktivität
- Prozent der injizierten Aktivität in den entsprechend Organen (Hirn, 2′): 3,11 Prozent der injizierten Aktivität
- Prozent der injizierten Aktivität in den entsprechend Organen (Hirn, 10′): 5,38 Prozent der injizierten Aktivität
- Prozent der injizierten Aktivität in den entsprechend Organen (Hirn, 20′): 4,20 Prozent der injizierten Aktivität
- Prozent der injizierten Aktivität in den entsprechend Organen (Hirn, 40′): 4,02 Prozent der injizierten Aktivität
- Prozent der injizierten Aktivität in den entsprechend Organen (Hirn, 60′): 2,42 Prozent der injizierten Aktivität
- Prozent der injizierten Aktivität in den entsprechend Organen (Hirn, 6h): 0,08 Prozent der injizierten Aktivität
- Prozent der injizierten Aktivität in den entsprechend Organen (Hirn, 15h): 0,0015 Prozent der injizierten Aktivität
- Prozent der injizierten Aktivität in den entsprechend Organen (Kot + Urin, 2′): 0,05 Prozent der injizierten Aktivität
- Prozent der injizierten Aktivität in den entsprechend Organen (Kot + Urin, 10′): 6,17 Prozent der injizierten Aktivität
- Prozent der injizierten Aktivität in den entsprechend Organen (Kot + Urin, 20′): 19,39 Prozent der injizierten Aktivität
- Prozent der injizierten Aktivität in den entsprechend Organen (Kot + Urin, 40′): 48,72 Prozent der injizierten Aktivität
- Prozent der injizierten Aktivität in den entsprechend Organen (Kot + Urin, 60′): 51,71 Prozent der injizierten Aktivität
- Prozent der injizierten Aktivität in den entsprechend Organen (Kot + Urin, 6h): 48,81 Prozent der injizierten Aktivität
- Prozent der injizierten Aktivität in den entsprechend Organen (Kot + Urin, 15h): 42,69 Prozent der injizierten Aktivität
- Prozent der injizierten Aktivität in den entsprechend Organen (Leber, 2′): 16,90 Prozent der injizierten Aktivität
- Prozent der injizierten Aktivität in den entsprechend Organen (Leber, 10′): 34,37 Prozent der injizierten Aktivität
- Prozent der injizierten Aktivität in den entsprechend Organen (Leber, 20′): 17,61 Prozent der injizierten Aktivität
- Prozent der injizierten Aktivität in den entsprechend Organen (Leber, 40′): 3,90 Prozent der injizierten Aktivität
- Prozent der injizierten Aktivität in den entsprechend Organen (Leber, 60′): 1,29 Prozent der injizierten Aktivität
- Prozent der injizierten Aktivität in den entsprechend Organen (Leber, 6h): 0,15 Prozent der injizierten Aktivität
- Prozent der injizierten Aktivität in den entsprechend Organen (Leber, 15h): 0,107 Prozent der injizierten Aktivität
- Prozent der injizierten Aktivität in den entsprechend Organen (Lunge, 2′): 1,04 Prozent der injizierten Aktivität
- Prozent der injizierten Aktivität in den entsprechend Organen (Lunge, 10′): 0,81 Prozent der injizierten Aktivität
- Prozent der injizierten Aktivität in den entsprechend Organen (Magen, 2′): 0,81 Prozent der injizierten Aktivität
- Prozent der injizierten Aktivität in den entsprechend Organen (Magen, 10′): 1,20 Prozent der injizierten Aktivität
- Prozent der injizierten Aktivität in den entsprechend Organen (Magen, 20′): 1,28 Prozent der injizierten Aktivität
- Prozent der injizierten Aktivität in den entsprechend Organen (Magen, 40′): 1,37 Prozent der injizierten Aktivität
- Prozent der injizierten Aktivität in den entsprechend Organen (Magen, 60′): 1,96 Prozent der injizierten Aktivität
- Prozent der injizierten Aktivität in den entsprechend Organen (Magen, 6h): 1,35 Prozent der injizierten Aktivität
- Prozent der injizierten Aktivität in den entsprechend Organen (Magen, 15h): 0,346 Prozent der injizierten Aktivität
- Prozent der injizierten Aktivität in den entsprechend Organen (Milz, 2′): 0,26 Prozent der injizierten Aktivität
- Prozent der injizierten Aktivität in den entsprechend Organen (Milz, 10′): 0,21 Prozent der injizierten Aktivität
- Prozent der injizierten Aktivität in den entsprechend Organen (Milz, 20′): 0,11 Prozent der injizierten Aktivität
- Prozent der injizierten Aktivität in den entsprechend Organen (Milz, 40′): 0,06 Prozent der injizierten Aktivität
- Prozent der injizierten Aktivität in den entsprechend Organen (Milz, 60′): 0,03 Prozent der injizierten Aktivität
- Prozent der injizierten Aktivität in den entsprechend Organen (Milz, 6h): 0,008 Prozent der injizierten Aktivität
- Prozent der injizierten Aktivität in den entsprechend Organen (Milz, 15h): 0,0035 Prozent der injizierten Aktivität
- Prozent der injizierten Aktivität in den entsprechend Organen (Nieren, 2′): 3,15 Prozent der injizierten Aktivität
- Prozent der injizierten Aktivität in den entsprechend Organen (Nieren, 10′): 7,48 Prozent der injizierten Aktivität
- Prozent der injizierten Aktivität in den entsprechend Organen (Nieren, 20′): 6,25 Prozent der injizierten Aktivität
- Prozent der injizierten Aktivität in den entsprechend Organen (Nieren, 40′): 1,53 Prozent der injizierten Aktivität
- Prozent der injizierten Aktivität in den entsprechend Organen (Nieren, 60′): 0,79 Prozent der injizierten Aktivität
- Prozent der injizierten Aktivität in den entsprechend Organen (Nieren, 6h): 0,04 Prozent der injizierten Aktivität
- Prozent der injizierten Aktivität in den entsprechend Organen (Nieren, 15h): 0,009 Prozent der injizierten Aktivität
- Prozent der injizierten Aktivität in den entsprechend Organen (Ovar, 2′): 0,09 Prozent der injizierten Aktivität
- Prozent der injizierten Aktivität in den entsprechend Organen (Ovar, 10′): 0,06 Prozent der injizierten Aktivität
- Prozent der injizierten Aktivität in den entsprechend Organen (Ovar, 20′): 0,05 Prozent der injizierten Aktivität
- Prozent der injizierten Aktivität in den entsprechend Organen (Ovar, 40′): 0,02 Prozent der injizierten Aktivität
- Prozent der injizierten Aktivität in den entsprechend Organen (Ovar, 60′): 0,02 Prozent der injizierten Aktivität
- Prozent der injizierten Aktivität in den entsprechend Organen (Ovar, 6h): 0,003 Prozent der injizierten Aktivität
- Prozent der injizierten Aktivität in den entsprechend Organen (Ovar, 15h): 0,0008 Prozent der injizierten Aktivität
- Prozent der injizierten Aktivität in den entsprechend Organen (Restkörper, 2′): 63,94 Prozent der injizierten Aktivität
- Prozent der injizierten Aktivität in den entsprechend Organen (Restkörper, 10′): 29,92 Prozent der injizierten Aktivität
- Prozent der injizierten Aktivität in den entsprechend Organen (Restkörper, 20′): 25,92 Prozent der injizierten Aktivität
- Prozent der injizierten Aktivität in den entsprechend Organen (Restkörper, 40′): 11,04 Prozent der injizierten Aktivität
- Prozent der injizierten Aktivität in den entsprechend Organen (Restkörper, 60′): 7,09 Prozent der injizierten Aktivität
- Prozent der injizierten Aktivität in den entsprechend Organen (Restkörper, 6h): 2,88 Prozent der injizierten Aktivität
- Prozent der injizierten Aktivität in den entsprechend Organen (Restkörper, 15h): 1,30 Prozent der injizierten Aktivität
- Prozent der injizierten Aktivität in den entsprechend Organen (Schilddrüse, 2′): 0,18 Prozent der injizierten Aktivität
- Prozent der injizierten Aktivität in den entsprechend Organen (Schilddrüse, 10′): 0,15 Prozent der injizierten Aktivität
- Prozent der injizierten Aktivität in den entsprechend Organen (Schilddrüse, 20′): 0,18 Prozent der injizierten Aktivität
- Prozent der injizierten Aktivität in den entsprechend Organen (Schilddrüse, 40′): 0,03 Prozent der injizierten Aktivität
- Prozent der injizierten Aktivität in den entsprechend Organen (Schilddrüse, 60′): 0,02 Prozent der injizierten Aktivität
- Prozent der injizierten Aktivität in den entsprechend Organen (Schilddrüse, 6h): 0,008 Prozent der injizierten Aktivität
- Prozent der injizierten Aktivität in den entsprechend Organen (Schilddrüse, 15h): 0,0015 Prozent der injizierten Aktivität
- Prozent der injizierten Aktivität in den entsprechend Organen (Totalkörper, 2′): 99,75 Prozent der injizierten Aktivität
- Prozent der injizierten Aktivität in den entsprechend Organen (Totalkörper, 10′): 92,96 Prozent der injizierten Aktivität
- Prozent der injizierten Aktivität in den entsprechend Organen (Totalkörper, 20′): 78,87 Prozent der injizierten Aktivität
- Prozent der injizierten Aktivität in den entsprechend Organen (Totalkörper, 40′): 47,80 Prozent der injizierten Aktivität
- Prozent der injizierten Aktivität in den entsprechend Organen (Totalkörper, 60′): 43,17 Prozent der injizierten Aktivität
- Prozent der injizierten Aktivität in den entsprechend Organen (Totalkörper, 6h): 24,16 Prozent der injizierten Aktivität

Reference: patent EP0353754A2, “Radioactively marked benzodiazepin derivates” (F. HOFFMANN-LA ROCHE AG, priority 1988, dated 1990)
